The values that follow come from ChEMBL document CHEMBL1129230, “Inhibitory effects of scopadulcic acid B and its derivatives on bone resorption and osteoclast formation in vitro” (1996).

Holding throughout (type): functional
Assay [1] is filed under the species Mus musculus. As to the kind of experiment: Inhibition of PTH-stimulated osteoclast-like cell formation at concentration 5 uM.
Assay [2] is filed under the species Mus musculus. Nature of the assay: Inhibition of PTH-stimulated bone resorption at concentration of 5 uM.
For assay [3], the species on record is Mus musculus. As to the kind of experiment: Inhibition of PTH-stimulated osteoclast-like cell formation at concentration 10 uM.
Assay [4] is filed under the species Mus musculus. As to the kind of experiment: Inhibition of PTH-stimulated bone resorption at concentration of 2 uM.
The species named for assay [5] is Mus musculus. As to the kind of experiment: Inhibition of PTH-stimulated bone resorption at concentration of 10 uM.
For assay [6], the species on record is Mus musculus. As to the kind of experiment: Inhibition of PTH-stimulated osteoclast-like cell formation at concentration 2 uM.
The species named for assay [7] is Mus musculus. Nature of the assay: compound was evaluated in vitro for the inhibition of PTH-stimulated osteoclast-like cell formation at concentration 2 uM.
The species named for assay [8] is Mus musculus. Nature of the assay: compound was evaluated in vitro for the inhibition of PTH-stimulated osteoclast-like cell formation at concentration 5 uM.
Assay [9] is filed under the species Mus musculus. Nature of the assay: compound was evaluated in vitro for the inhibition of PTH-stimulated osteoclast-like cell formation at concentration 10 uM.
The species entered for assay [10] is Mus musculus. Nature of the assay: compound was evaluated in vitro for the inhibition of PTH-stimulated osteoclast-like cell formation at concentration 0.1 uM.
The species entered for assay [11] is Mus musculus. As to the kind of experiment: compound was evaluated in vitro for the inhibition of PTH-stimulated osteoclast-like cell formation at concentration 0.5 uM.
For assay [12], the species on record is Mus musculus. As to the kind of experiment: compound was evaluated in vitro for the inhibition of PTH-stimulated osteoclast-like cell formation at concentration 0.05 uM.

Turning to `COC(=O)[C@]1(C)CCC[C@@]2(C)[C@H]1[C@H](OC(=O)c1ccccc1)C[C@H]1CC(=O)[C@@]3(C)CC[C@]12C3`, the inhibition at 5 µM in the assay listed under Mus musculus [1] came out at 91%. Besides, the values for the Inhibition in the assay filed under Mus musculus [2], in the assay listed under Mus musculus [4] and in the assay filed under Mus musculus [5] were 74%, 78% and 110%, respectively. Further, the inhibition at 10 µM in the assay filed under Mus musculus [3] worked out at 118%. Further, in the assay filed under Mus musculus [6], the inhibition at 2 µM was 70%.

Regarding `CC(=O)O[C@@H]1C[C@H]2CC(=O)[C@@]3(C)CC[C@@]2(C3)[C@@]2(C)CCC[C@@](C)(C(=O)O)[C@H]12`, in the assay filed under Mus musculus [1], the inhibition at 5 µM was determined as 27%. Besides, the figures for the Inhibition in the assay listed under Mus musculus [2], in the assay filed under Mus musculus [4] and in the assay filed under Mus musculus [5] were 40%, 33% and 47%, respectively. Further, the inhibition at 10 µM in the assay listed under Mus musculus [3] turned out to be 37%. Moreover, the inhibition at 2 µM in the assay filed under Mus musculus [6] is -8%.

Take `COC(=O)[C@]1(C)CCC[C@@]2(C)[C@H]1[C@H](OC(=O)c1ccccc1)C[C@H]1C[C@@H](OC(C)=O)[C@@]3(C)CC[C@]12C3`: the inhibition at 5 µM in the assay filed under Mus musculus [1] was found to be 70%. Moreover, the Inhibition turned out to be 40% in the assay listed under Mus musculus [2], 55% in the assay listed under Mus musculus [4] and 37% in the assay filed under Mus musculus [5]. The inhibition at 10 µM in the assay listed under Mus musculus [3] was 112%. Moreover, the inhibition at 2 µM in the assay filed under Mus musculus [6] was 60%.

For `C[C@]12CC[C@]3(C1)C(CC2=O)C[C@@H](O)C1[C@](C)(C(=O)O)CCC[C@@]13C` (stereo partly drawn), in the assay filed under Mus musculus [1], the inhibition at 5 µM amounted to 10%. The Inhibition was 92% in the assay filed under Mus musculus [2], 43% in the assay listed under Mus musculus [4] and 94% in the assay listed under Mus musculus [5]. In the assay filed under Mus musculus [3], the inhibition at 10 µM was 20%. The inhibition at 2 µM in the assay filed under Mus musculus [6] was found to be 0%.

With `C[C@@]1(CO)CCC[C@@]2(C)C1[C@H](OC(=O)c1ccccc1)C[C@H]1C[C@H](O)[C@@]3(C)CC[C@]12C3` (stereo partly drawn), the inhibition at 2 µM in the assay filed under Mus musculus [7] amounted to 24%. Besides, the inhibition at 5 µM in the assay listed under Mus musculus [8] was found to be 75%. The values for the Inhibition in the assay filed under Mus musculus [2] and in the assay listed under Mus musculus [4] were 99% and -51%, respectively. Moreover, in the assay filed under Mus musculus [9], the inhibition at 10 µM was determined as 94%.

In the case of `CC(=O)OC[C@]1(C)CCC[C@@]2(C)C1[C@H](O)CC1C[C@H](OC(C)=O)[C@@]3(C)CC[C@]12C3` (stereo partly drawn), the Inhibition was 23% in the assay listed under Mus musculus [2], 1% in the assay listed under Mus musculus [4] and 11% in the assay listed under Mus musculus [5].

For `CC(=O)OC[C@]1(C)CCC[C@@]2(C)[C@H]1[C@H](OC(=O)c1ccccc1)C[C@H]1CC(=O)[C@@]3(C)CC[C@]12C3`, in the assay filed under Mus musculus [1], the inhibition at 5 µM amounted to 90%. Also, the Inhibition is recorded as 107% in the assay filed under Mus musculus [2], 12% in the assay filed under Mus musculus [4] and 125% in the assay filed under Mus musculus [5]. The inhibition at 10 µM in the assay filed under Mus musculus [3] was 105%. Moreover, in the assay listed under Mus musculus [6], the inhibition at 2 µM was found to be 45%.

Turning to `COC(=O)[C@]1(C)CCC[C@@]2(C)[C@H]1[C@H](OC(=O)c1ccccc1)C[C@H]1C[C@H](OC(C)=O)[C@@]3(C)CC[C@]12C3`, in the assay filed under Mus musculus [1], the inhibition at 5 µM amounted to 109%. Further, the Inhibition in the assay listed under Mus musculus [2] amounted to 51%; in the assay listed under Mus musculus [4], 38%; in the assay listed under Mus musculus [5], 55%. Besides, the inhibition at 10 µM in the assay filed under Mus musculus [3] came to 134%. Besides, the inhibition at 2 µM in the assay filed under Mus musculus [6] came out at 81%.

Turning to `C[C@]12CC[C@]3(C1)[C@H](CC2=O)C[C@@H](OC(=O)c1ccccc1)[C@H]1[C@@](CO)(C(=O)O)CCC[C@@]13C` [SCOPADULCIC ACID A], the Inhibition in the assay listed under Mus musculus [2] is 24%; in the assay listed under Mus musculus [4], 46%; in the assay listed under Mus musculus [5], -14%.

For the compound `C[C@]12CC[C@]3(C1)[C@H](CC2=O)C[C@@H](OC(=O)c1ccccc1)[C@H]1[C@](C)(C(=O)O)CCC[C@@]13C` [SCOPADULCIC ACID B], the inhibition at 5 µM in the assay filed under Mus musculus [1] is 74%. Further, the Inhibition is recorded as 76% in the assay listed under Mus musculus [2], 28% in the assay filed under Mus musculus [4] and 94% in the assay filed under Mus musculus [5]. In the assay listed under Mus musculus [3], the inhibition at 10 µM was 87%. Besides, in the assay filed under Mus musculus [6], the inhibition at 2 µM was determined as 59%.

On to `COC(=O)[C@]1(C)CCC[C@@]2(C)[C@H]1[C@H](OC(=O)c1ccccc1)C[C@H]1C[C@H](O)[C@@]3(C)CC[C@]12C3`, for which the Inhibition is -17% in the assay listed under Mus musculus [2], -23% in the assay listed under Mus musculus [4] and -10% in the assay listed under Mus musculus [5].

For the compound `C[C@]12CC[C@]3(C1)[C@H](C[C@H]2O)C[C@@H](OC(=O)c1ccccc1)[C@H]1[C@](C)(C(=O)O)CCC[C@@]13C`, in the assay listed under Mus musculus [1], the inhibition at 5 µM came out at 87%. Further, the Inhibition in the assay listed under Mus musculus [2] turned out to be 40%; in the assay listed under Mus musculus [4], 45%; in the assay filed under Mus musculus [5], 37%. The inhibition at 10 µM in the assay filed under Mus musculus [3] is 104%. The inhibition at 2 µM in the assay filed under Mus musculus [6] was found to be 17%.

In the case of `C[C@]12CC[C@]3(C1)[C@H](C/C2=N\O)C[C@@H](OC(=O)c1ccccc1)[C@H]1[C@](C)(C(=O)O)CCC[C@@]13C`, the Inhibition in the assay filed under Mus musculus [2] is 66%; in the assay listed under Mus musculus [4], 28%; in the assay filed under Mus musculus [5], 90%.

`C[C@]12CC[C@]3(C1)[C@@H](C[C@@H](OC(=O)c1ccccc1)[C@H]1[C@](C)(C(=O)O)CCC[C@@]13C)C[C@@H]2O`: the inhibition at 5 µM in the assay listed under Mus musculus [1] amounted to 75%. The Inhibition in the assay filed under Mus musculus [2] came to 39%; in the assay filed under Mus musculus [4] it was 35%; in the assay filed under Mus musculus [5], 70%. Moreover, the inhibition at 10 µM in the assay filed under Mus musculus [3] was 93%. Further, in the assay filed under Mus musculus [6], the inhibition at 2 µM came out at 24%.

In the case of `C[C@]12CC[C@]3(C1)C(CC2=O)C[C@@H](OC(=O)c1ccccc1)C1[C@](C)(CO)CCC[C@@]13C` (stereo partly drawn), the inhibition at 5 µM in the assay filed under Mus musculus [1] is 137%. In addition, the inhibition at 0.1 µM in the assay listed under Mus musculus [10] was determined as 115%. Moreover, the Inhibition was found to be 99% in the assay listed under Mus musculus [2], 106% in the assay listed under Mus musculus [4] and 99% in the assay listed under Mus musculus [5]. Moreover, the inhibition at 10 µM in the assay filed under Mus musculus [3] is 137%. In addition, the inhibition at 0.5 µM in the assay filed under Mus musculus [11] is 137%. Besides, the inhibition at 0.05 µM in the assay filed under Mus musculus [12] came out at 44%. For the same compound, the inhibition at 2 µM in the assay listed under Mus musculus [6] was found to be 137%.

For the compound `CC(=O)O[C@H]1C[C@@H]2C[C@@H](OC(=O)c3ccccc3)[C@H]3[C@](C)(C(=O)O)CCC[C@]3(C)[C@]23CC[C@@]1(C)C3`, the Inhibition in the assay listed under Mus musculus [2] was found to be 18%; in the assay listed under Mus musculus [4] it was 21%; in the assay listed under Mus musculus [5], 8%.

`CC(=O)O[C@@H]1C[C@@H]2C[C@@H](OC(=O)c3ccccc3)[C@H]3[C@](C)(C(=O)O)CCC[C@]3(C)[C@]23CC[C@@]1(C)C3`: in the assay listed under Mus musculus [1], the inhibition at 5 µM is 72%. Moreover, the values for the Inhibition in the assay listed under Mus musculus [2], in the assay filed under Mus musculus [4] and in the assay filed under Mus musculus [5] were 26%, 27% and 42%, respectively. Also, in the assay listed under Mus musculus [3], the inhibition at 10 µM was 79%. Moreover, in the assay listed under Mus musculus [6], the inhibition at 2 µM is 55%.

As to `COC(=O)[C@]1(C)CCC[C@@]2(C)[C@H]1[C@H](OC(=O)c1ccccc1)C[C@H]1C[C@@H](O)[C@@]3(C)CC[C@]12C3`, the figures for the Inhibition in the assay filed under Mus musculus [2], in the assay filed under Mus musculus [4] and in the assay listed under Mus musculus [5] were 29%, 22% and 49%, respectively.

As to `C[C@@]1(CO)CCC[C@@]2(C)C1[C@H](OC(=O)c1ccccc1)C[C@H]1C[C@@H](O)[C@@]3(C)CC[C@]12C3` (stereo partly drawn), in the assay filed under Mus musculus [1], the inhibition at 5 µM worked out at 87%. For the same compound, the Inhibition in the assay listed under Mus musculus [2] is listed as 95%; in the assay filed under Mus musculus [4] it was -60%. Further, the inhibition at 10 µM in the assay listed under Mus musculus [3] stood at 105%. The inhibition at 2 µM in the assay listed under Mus musculus [6] turned out to be 17%.

`C[C@]12CC[C@]3(C1)[C@@H](C[C@@H](O)[C@H]1[C@](C)(CO)CCC[C@@]13C)C[C@H]2O`: the Inhibition in the assay listed under Mus musculus [2] is on record as 6%; in the assay listed under Mus musculus [4] it was -8%; in the assay filed under Mus musculus [5], -17%.

Consider `C[C@]12CC[C@]3(C1)[C@@H](C[C@@H](O)[C@H]1[C@](C)(CO)CCC[C@@]13C)C[C@@H]2O`, for which the Inhibition in the assay filed under Mus musculus [2] is reported as -25%; in the assay filed under Mus musculus [4], -5%; in the assay filed under Mus musculus [5], -4%.

As usually defined, the inhibition is the relative decrease from the control value, in per cent. Usually Inhibition stands for the drop in the measured response relative to a control, in per cent.
